Laboratory results as given in the NIST ThermoML archive (doi:10.1016/j.jct.2017.10.004).

Experiment: xn = mol fraction of the nth substance listed
Details: 100 kPa, Liquid; for electrical conductivity: Alternating current cell with electrodes; for viscosity: Capillary tube (Ostwald / Ubbelohde) method; for mass density: Vibrating tube method

Cn1cc[n+](C)c1.O=S(=O)([N-]S(=O)(=O)C(F)(F)F)C(F)(F)F [1,3-dimethylimidazolium bis((trifluoromethyl)sulfonyl)amide] + O=C1CCCO1
Details | electrical conductivity, 298.15 K [S/m] | electrical conductivity, 303.15 K [S/m] | electrical conductivity, 308.15 K [S/m] | mass density, 298.15 K [kg/m3] | mass density, 303.15 K [kg/m3] | mass density, 308.15 K [kg/m3] | viscosity, 298.15 K [mPa·s] | viscosity, 303.15 K [mPa·s] | viscosity, 308.15 K [mPa·s]
x1 = 0.05124 | 1.13 | 1.22 | 1.32 | 1190.03 | 1185.01 | 1180.03 | 2.27 | 2.08 | 1.85
x1 = 0.09948 | 1.58 | 1.72 | 1.85 | 1240.94 | 1235.89 | 1230.85 | 2.86 | 2.61 | 2.39
x1 = 0.1551 | 1.75 | 1.9 | 2.06 | 1289.73 | 1284.67 | 1279.57 | 3.61 | 3.24 | 3.02
x1 = 0.2007 | 1.77 | 1.94 | 2.09 | 1323.77 | 1318.66 | 1313.53 | 4.44 | 4 | 3.62
x1 = 0.2991 | 1.73 | 1.9 | 2.07 | 1383.3 | 1378.16 | 1372.98 | 6.56 | 5.81 | 5.23
x1 = 0.4002 | 1.6 | 1.76 | 1.93 | 1430.37 | 1425.2 | 1419.99 | 9.39 | 8.35 | 7.3
x1 = 0.4998 | 1.47 | 1.63 | 1.79 | 1467.09 | 1461.93 | 1456.71 | 12.79 | 11.04 | 9.7
x1 = 0.6127 | 1.29 | 1.45 | 1.61 | 1500.46 | 1495.28 | 1490.05 | 17.69 | 15.09 | 12.98
x1 = 0.7009 | 1.17 | 1.32 | 1.47 | 1522 | 1516.83 | 1511.6 | 22.05 | 18.61 | 16
x1 = 0.8002 | 1.05 | 1.19 | 1.34 | 1542.63 | 1537.44 | 1532.21 | 27.52 | 22.9 | 19.53
x1 = 0.8997 | 0.905 | 1.04 | 1.18 | 1560.16 | 1554.97 | 1549.75 | 33.41 | 27.66 | 23.46
x1 = 1 | 0.774 | 0.915 | 1.06 | 1575.42 | 1570.25 | 1565.01 | 39.43 | 32.51 | 27.47
